In patent US11976083B2, “Inhibitors of peptidylarginine deiminases” (Gilead Sciences, Inc., priority 2020, dated 2024):

biological target: T1, human PAD4 (Homo sapiens, UniProt Q9UM07); experiment: In vitro PAD4 BAEE biochemical assay; conditions: BAEE substrate 3 mM, 5 nM PAD4, 2 mM calcium chloride; geometric mean of multiple experiments
T1 construct: human PAD4 (NM_012387), A2-P663, was PCR amplified; His-SUMO (N, cleaved yes); made in house; host or cells: E. coli BL21(DE3)
Outline: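 Recombinant PAD4 (5 nM final) with 2 mM CaCl2 was preincubated with compound for 30 min at 25 °C in MOPS pH 7.6 buffer with DTT, then reacted with 3 mM BAEE for 2 h at 25 °C. Released ammonia was detected fluorimetrically with o-phthalaldehyde/DTT; IC50 from four-parameter fit, geometric mean of experiments.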

T1 sequence (Q9UM07 2-663): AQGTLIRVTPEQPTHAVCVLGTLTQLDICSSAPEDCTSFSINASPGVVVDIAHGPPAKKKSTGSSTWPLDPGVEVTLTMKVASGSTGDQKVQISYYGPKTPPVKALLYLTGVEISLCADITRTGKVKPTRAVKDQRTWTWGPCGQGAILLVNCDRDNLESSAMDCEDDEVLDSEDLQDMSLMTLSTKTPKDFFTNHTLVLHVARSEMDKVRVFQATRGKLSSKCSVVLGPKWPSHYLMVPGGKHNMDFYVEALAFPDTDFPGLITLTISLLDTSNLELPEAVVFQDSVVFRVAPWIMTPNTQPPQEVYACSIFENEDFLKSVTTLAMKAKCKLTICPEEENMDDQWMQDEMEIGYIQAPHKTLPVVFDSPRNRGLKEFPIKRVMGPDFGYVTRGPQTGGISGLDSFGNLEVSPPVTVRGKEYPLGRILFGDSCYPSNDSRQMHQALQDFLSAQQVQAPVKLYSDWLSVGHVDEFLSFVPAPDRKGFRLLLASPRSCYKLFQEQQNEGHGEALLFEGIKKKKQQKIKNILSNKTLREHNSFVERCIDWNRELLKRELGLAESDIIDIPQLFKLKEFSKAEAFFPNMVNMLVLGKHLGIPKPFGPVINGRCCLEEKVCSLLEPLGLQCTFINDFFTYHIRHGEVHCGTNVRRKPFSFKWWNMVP

SMILES	IC50 [µM]
C[C@H]1NC(=O)c2ccc(Cl)nc2CCCCCn2c(-c3nc4cc(C(=O)N5C[C@H](N)[C@@H]6CC[C@H]5C6)cc(F)c4n3[C@@H]3C[C@H]3F)cc3ccc1nc32 [Example 473, (2~{R})-17-[5-[(1~{S},4~{R},5~{R})-4-amino-2-azabicyclo[3.2.1]octane-2-carbonyl]-7-fluoro-1-[(1~{R},2~{R})-2-fluorocyclopropyl]benzimidazol-2-yl]-8-chloro-2-methyl-3,9,16,22-tetrazatetracyclo[14.5.2.0^{5,10}.0^{19,23}] tricosa-1(22),5(10),6,8,17,19(23),20-heptaen-4-one]	0.044
C[C@H]1NC(=O)c2ccc(C(F)(F)F)nc2CCCCCn2c(-c3nc4cc(C(=O)N5C[C@H](N)[C@@H]6CC[C@H]5C6)cc(F)c4n3C3CC3)cc3ccc1nc32 [Example 474, (2~{R})-17-[5-[(1~{S},4~{R},5~{R})-4-amino-2-azabicyclo[3.2.1]octane-2-carbonyl]-1-cyclopropyl-7-fluoro-benzimidazol-2-yl]-2-methyl-8-(trifluoromethyl)-3,9,16,22-tetrazatetracyclo[14.5.2.0^{5,10}.0^{19,23}] tricosa-1(22),5(10),6,8,17,19(23),20-heptaen-4-one]	0.049
COc1cc(C(=O)N2C[C@H](N)[C@@H]3CC[C@H]2C3)cc2nc(-c3cc4ccc5nc4n3CC(F)(F)CCCCC3(CC3)C(=O)N[C@@H]5C)n(C)c12 [Example 475, (11~{R})-17-[5-[(1~{S},4~{R},5~{R})-4-amino-2-azabicyclo[3.2.1]octane-2-carbonyl]-7-methoxy-1-methyl-benzimidazol-2-yl]-3,3-difluoro-11-methyl-spiro[1,10,19-triazatricyclo[10.5.2.0^{15,18}]nonadeca-12(19),13,15(18),16-tetraene-8,1′-cyclopropane]-9-one]	0.062
C[C@H]1NC(=O)c2cc3ccccc3nc2CCCCCn2c(-c3nc4cc(C(=O)N5C[C@H](N)[C@@H]6CC[C@H]5C6)cc(F)c4n3C3CC3)cc3ccc1nc32 [Example 476, (2~{R})-21-[5-[(1~{S),4~{R},5~{R})-4-amino-2-azabicyclo[3.2.1]octane-2-carbonyl]-1-cyclopropyl-7-fluoro-benzimidazol-2-yl]-2-methyl-3,13,20,26-tetrazapentacyclo[18.5.2.0^{5,14).0^ {7,12}.0^{23,27}]heptacosa-1(26),5(14),6,8,10,12,21,23(27),24-nonaen-4-one]	0.038
C[C@H]1NC(=O)[C@@H]2C[C@H]2CCCC(F)(F)Cn2c(-c3nc4cc(C(=O)N5C[C@H](N)[C@@H]6CC[C@H]5C6)cc(F)c4n3[C@@H]3C[C@H]3F)cc3ccc1nc32 [Example 477, (2~{R},5~{R},7~{R})-14-[5-[(1~{S},4~{R},5~{R})-4-amino-2-azabicyclo[3.2.1]octane-2-carbonyl]-7-fluoro-1-[(1~{R},2~{R})-2-fluorocyclopropyl]benzimidazol-2-yl]-11,11-difluoro-2-methyl-3,13,19-triazatetracyclo[11.5.2.0^{5,7}.0^{16,20}] icosa-1(19),14,16(20),17-tetraen-4-one]	0.035
C[C@H]1NC(=O)c2c(ccnc2C(F)(F)F)CCCCCn2c(-c3nc4cc(C(=O)N5C[C@H](N)[C@@H]6CC[C@H]5C6)cc(F)c4n3C3CC3)cc3ccc1nc32 [Example 478, (2~{R})-17-[5-[(1~{S},4~{R},5~{R})-4-amino-2-azabicyclo[3.2.1]octane-2-carbonyl]-1-cyclopropyl-7-fluoro-benzimidazol-2-yl]-2-methyl-6-(trifluoromethyl)-3,7,16,22-tetrazatetracyclo[14.5.2.0^{5,10).0^{19,23}] tricosa-1(22),5(10),6,8,17,19(23),20-heptaen-4-one]	0.05
C[C@H]1NC(=O)[C@@H]2C[C@H]2CCCC(F)(F)Cn2c(-c3nc4cc(C(=O)N5C[C@H](N)[C@@H]6CC[C@H]5C6)cc(F)c4n3[C@H]3C[C@@H]3F)cc3ccc1nc32 [Example 479, (2~{R},5~{R},7~{R})-14-[5-[(1~{S},4~{R},5~{R})-4-amino-2-azabicyclo[3.2.1]octane-2-carbonyl]-7-fluoro-1-[(1~{S},2~{S})-2-fluorocyclopropyl]benzimidazol-2-yl]-11,11-difluoro-2-methyl-3,13,19-triazatetracyclo[11.5.2.0^{5,7}.0^{16,20}] icosa-1(19),14,16(20),17-tetraen-4-one]	0.047
C[C@H]1NC(=O)[C@@](F)(c2cccc(Cl)n2)CCCCCCn2c(-c3nc4cc(C(=O)N5C[C@H](N)[C@@H]6CC[C@H]5C6)cc(F)c4n3C3CC3)cc3ccc1nc32 [Example 480, (8~{S},11~{R})-17-[5-[(1~{S},4~{R},5~{R})-4-amino-2-azabicyclo[3.2.1]octane-2-carbonyl]-1-cyclopropyl-7-fluoro-benzimidazol-2-yl]-8-(6-chloro-2-pyridyl)-8-fluoro-11-methyl-1,10,19-triazatricyclo[10.5.2.0^{15,18}]nonadeca-12(19),13,15(18),16-tetraen-9-one]	0.134
C[C@H]1NC(=O)[C@](F)(c2cccc(Cl)n2)CCCCCCn2c(-c3nc4cc(C(=O)N5C[C@H](N)[C@@H]6CC[C@H]5C6)cc(F)c4n3C3CC3)cc3ccc1nc32 [Example 481, (8~{R},11~{R})-17-[5-[(1~{S},4~{R},5~{R})-4-amino-2-azabicyclo[3.2.1]octane-2-carbonyl]-1-cyclopropyl-7-fluoro-benzimidazol-2-yl]-8-(6-chloro-2-pyridyl)-8-fluoro-11-methyl-1,10,19-triazatricyclo[10.5.2.0^{15,18}]nonadeca-12(19),13,15(18),16-tetraen-9-one]	0.231
[2H]C1([2H])CCCC[C@@H]2C[C@H]2C(=O)N[C@H](C)c2ccc3cc(-c4nc5cc(C(=O)N6C[C@H](N)[C@@H]7CC[C@H]6C7)cc(F)c5n4C4CC4)n1c3n2 [Example 482, (2~{R},5~{R},7~{R})-14-[5-[(1~{S},4~{R},5~{R})-4-amino-2-azabicyclo[3.2.1]octane-2-carbonyl]-1-cyclopropyl-7-fluoro-benzimidazol-2-yl]-12,12-dideuterio-2-methyl-3,13,19-triazatetracyclo[11.5.2.0^{5,7}.0^{16,20}] icosa-1(19),14,16(20),17-tetraen-4-one]	0.026
C[C@H]1NC(=O)c2nccnc2CCCC(F)(F)Cn2c(-c3nc4cc(C(=O)N5C[C@H](N)[C@@H]6CC[C@H]5C6)cc(F)c4n3C3CC3)cc3ccc1nc32 [Example 483, (2~{R})-17-[5-[(1~{S},4~{R},5~{R})-4-amino-2-azabicyclo[3.2.1]octane-2-carbonyl]-1-cyclopropyl-7-fluoro-benzimidazol-2-yl]-14,14-difluoro-2-methyl-3,6,9,16,22-pentazatetracyclo[14.5.2.0^{5,10}.0^{19, 23}]tricosa-1(22),5(10),6,8,17,19(23),20-heptaen-4-one]	0.033
COc1cc(C(=O)N2C[C@H](N)[C@@H]3CC[C@H]2C3)cc2nc(-c3cc4ccc5nc4n3CCCCCc3nccnc3C(=O)N[C@@H]5C)n(C)c12 [Example 484, (2~{R})-17-[5-[(1~{S},4~{R},5~{R})-4-amino-2-azabicyclo[3.2.1]octane-2-carbonyl]-7-methoxy-1-methyl-benzimidazol-2-yl]-2-methyl-3,6,9,16,22-pentazatetracyclo[14.5.2.0^{5,10}.0^{19, 23}]tricosa-1(22),5(10),6,8,17,19(23),20-heptaen-4-one]	0.044
C[C@H]1NC(=O)c2nccnc2CCCCCn2c(-c3nc4cc(C(=O)N5C[C@H](N)[C@@H]6CC[C@H]5C6)cc(F)c4n3C3CC3)cc3ccc1nc32 [Example 485, (2~{R})-17-[5-[(1~{S),4~{R},5~{R})-4-amino-2-azabicyclo[3.2.1]octane-2-carbonyl]-1-cyclopropyl-7-fluoro-benzimidazol-2-yl]-2-methyl-3,6,9,16,22-pentazatetracyclo[14.5.2.0^{5,10}.0^{19, 23}]tricosa-1(22),5(10),6,8,17,19(23),20-heptaen-4-one]	0.029
C[C@H]1NC(=O)C(C)(C)CCCCCCn2c(-c3nc4cc(C(=O)N5[C@H]6CC[C@@H]5[C@H](N)C6)c(F)cc4n3C3CC3)cc3ccc1nc32 [Example 488, (11~{R})-17-[5-[(1~ {R},2~{R},4~{S})-2-amino-7-azabicyclo [2.2.1]heptane-7-carbonyl]-1-cyclopropyl-6-fluoro-benzimidazol-2-yl]-8,8,11-trimethyl-1,10,19-triazatricyclo [10.5.2.0^{15,18}]nonadeca-12(19),13,15(18),16-tetraen-9-one]	0.064
COc1cc(C(=O)N2CC[C@@H](OCC(F)F)[C@@H](N)C2)cc2nc(-c3cc4ccc5nc4n3CCCCC[C@@H]3C[C@H]3C(=O)N[C@@H]5C)n(C)c12 [Example 489, (2~{R},5~{R}, 7~{R})-14-[5-[(3~{S},4~{R})-3-amino-4-(2,2-difluoroethoxy)piperidine-1-carbonyl]-7-methoxy-1-methyl-benzimidazol-2-yl]-2-methyl-3,13,19-triazatetracyclo [11.5.2.0^{5,7}.0^{16,20}] icosa-1(19),14,16(20), 17-tetraen-4-one]	0.078
COc1cc(C(=O)N2CC[C@@H](OCC3CC3)[C@@H](N)C2)cc2nc(-c3cc4ccc5nc4n3CCCCC[C@@H]3C[C@H]3C(=O)N[C@@H]5C)n(C)c12 [Example 490, (2~{R},5~{R},7~{R})-14-[5-[(3~{S},4~{R})-3-amino-4-(cyclopropylmethoxy)piperidine-1-carbonyl]-7-methoxy-1-methyl-benzimidazol-2-yl]-2-methyl-3,13,19-triazatetracyclo [11.5.2.0^{5,7}.0^{16,20}] icosa-1(19),14,16(20), 17-tetraen-4-one]	0.086
